Source: patent US12630557B2, “Salt and crystal form of pyrimidine compound, and preparation methods therefor” (Sichuan Kelun-Biotech Biopharmaceutical Co., Ltd., priority 2020, dated 2026)
Values after ≈ are worked out from the molar mass of the structure shown.

Columns and labels:
[1] = Dynamic water adsorption (DVS) experiment; format: physicochemical; conditions: 25° C.
Method: Device information: SMS (Surface Measurement Systems) Intrinsic
Experimental method: temperature: 25° C.; protective gas N2; maximum equilibration time: 120 min; RH range: 0%-90%-0%.

[2] = Pharmacokinetic study in mice; format: in vivo; conditions: female Balb/c mice, PO 1 mg/kg, plasma compound I
Method: Female Balb/c mice (6 mice) were orally administered with 1 mg/kg of the crystal form A of the fumarate salt of the compound I by gavage. The compound was first dissolved with 0.5% methylcellulose solution and ultrasonicated to ensure complete dissolution or uniform suspension of the compound. 30 min, 1 […], and 24 h after administration, 0.2 mL of blood (EDTA-K2 anticoagulated) was venously collected. The collected whole blood was temporarily stored in an ice box, and centrifuged for 10 min within 2 h to separate the plasma (4° C.). The collected plasma was stored in a refrigerator at -80° C. prior to testing. The blood concentration of the compound I was detected by LC-MS/MS, and the linear range was from 10 to 10000 ng/mL.

[3] = Stability experiment under conditions of influencing factors (high temperature / high humidity); format: physicochemical; conditions: for HPLC purity: area normalized purity
From the text: Stability data of the crystal form A of the fumarate salt of the compound I under conditions of influencing factors is provided in Table 17 (HPLC purity is area normalized purity).

[4] = target: RET^V804L (Homo sapiens, UniProt P07949, V804L); test: HTRF KinEASE-TK RET enzyme inhibition; format: biochemical; conditions: RET^V804L 0.6 nM, ATP 10 μM; read-out: Inhibitory IC50 on RET enzyme
RET^V804L, sequence (P07949 29-1114 V804L): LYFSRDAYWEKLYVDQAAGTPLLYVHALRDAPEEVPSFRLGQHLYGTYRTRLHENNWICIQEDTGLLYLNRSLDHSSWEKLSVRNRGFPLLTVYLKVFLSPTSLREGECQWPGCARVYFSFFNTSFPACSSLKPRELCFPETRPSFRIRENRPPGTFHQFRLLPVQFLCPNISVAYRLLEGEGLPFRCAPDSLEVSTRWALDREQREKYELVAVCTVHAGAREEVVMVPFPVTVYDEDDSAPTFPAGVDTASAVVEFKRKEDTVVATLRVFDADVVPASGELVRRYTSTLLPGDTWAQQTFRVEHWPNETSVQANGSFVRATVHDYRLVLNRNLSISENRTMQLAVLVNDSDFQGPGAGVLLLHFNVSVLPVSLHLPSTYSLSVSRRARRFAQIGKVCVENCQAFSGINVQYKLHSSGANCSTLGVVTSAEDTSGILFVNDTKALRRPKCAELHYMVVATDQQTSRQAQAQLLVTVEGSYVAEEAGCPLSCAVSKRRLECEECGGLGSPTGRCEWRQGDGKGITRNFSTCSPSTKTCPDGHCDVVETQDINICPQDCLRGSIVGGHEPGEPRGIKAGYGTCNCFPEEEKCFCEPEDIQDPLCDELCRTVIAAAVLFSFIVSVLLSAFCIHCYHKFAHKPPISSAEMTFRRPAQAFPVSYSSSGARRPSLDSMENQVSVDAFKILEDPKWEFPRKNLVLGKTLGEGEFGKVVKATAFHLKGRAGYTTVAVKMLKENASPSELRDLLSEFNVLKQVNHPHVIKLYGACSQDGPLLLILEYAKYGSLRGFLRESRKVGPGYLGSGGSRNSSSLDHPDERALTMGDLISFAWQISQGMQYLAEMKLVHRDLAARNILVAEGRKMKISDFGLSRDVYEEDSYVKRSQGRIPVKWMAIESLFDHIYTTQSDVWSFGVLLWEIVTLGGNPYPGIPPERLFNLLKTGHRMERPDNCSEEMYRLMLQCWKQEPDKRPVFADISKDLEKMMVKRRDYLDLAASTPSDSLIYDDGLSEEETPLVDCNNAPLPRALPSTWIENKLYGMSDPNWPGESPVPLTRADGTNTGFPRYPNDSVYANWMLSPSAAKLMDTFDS
Method: (§1) The inhibitory effects of the crystal form A of the fumarate salt of the compound I on the activity of wild-type RET, mutant-type RET (RET^V804M RET^V804L, and RET^M918T), and fusion-type RET (CCDC6-RET and KIF5B-RET) were determined using HTRF KinEASE-TK (Cisbio) kit.
(§2) After pre-incubation of the above different types of RET enzymes and different concentrations of the test compounds (9 concentration points) at room temperature for 30 min, a substrate and adenosine triphosphate (ATP) were added to initiate the reaction. After incubation at room temperature for 40 min, TK antibody-cryptate and streptavidin-XL665 were added, and after incubation at room temperature for 60 min, the detection was performed.
(§3) With the solvent group (DMSO) as the negative control and the buffer group (without RET enzyme) as the blank control, the relative inhibitory activity percentages of the compound at different concentrations were computed as per the following equation: Relative inhibitory activity percentage=1−(compound group of different concentrations-blank control)/(negative control-blank control)*100%
(§4) The relative inhibitory activity percentages of the compound at different concentrations were plotted with respect to the compound concentrations, and the curve was fitted in accordance with a four-parameter model to compute the IC50 value as per the following equation: y=min+(max−min)/(1+(x/IC50)^(−Hillslope)) • where y is the relative inhibitory activity percentage, max and min are a maximum value of the fitted curve, and a minimum value of the fitted curve respectively, x is a logarithmic concentration of the compound, and Hillslope is a slope of the curve.

[5] = target: T1, CCDC6-RET (Homo sapiens, UniProt P07949); test: HTRF KinEASE-TK RET enzyme inhibition; format: biochemical; conditions: CCDC6-RET 0.3 nM, ATP 15 μM; read-out: Inhibitory IC50 on RET enzyme
T1 construct: the other entry of the earlier key: CCDC6 (Q16204, Coiled-coil domain-containing protein 6)
T1 sequence (P07949 with tags, fused parts or gaps): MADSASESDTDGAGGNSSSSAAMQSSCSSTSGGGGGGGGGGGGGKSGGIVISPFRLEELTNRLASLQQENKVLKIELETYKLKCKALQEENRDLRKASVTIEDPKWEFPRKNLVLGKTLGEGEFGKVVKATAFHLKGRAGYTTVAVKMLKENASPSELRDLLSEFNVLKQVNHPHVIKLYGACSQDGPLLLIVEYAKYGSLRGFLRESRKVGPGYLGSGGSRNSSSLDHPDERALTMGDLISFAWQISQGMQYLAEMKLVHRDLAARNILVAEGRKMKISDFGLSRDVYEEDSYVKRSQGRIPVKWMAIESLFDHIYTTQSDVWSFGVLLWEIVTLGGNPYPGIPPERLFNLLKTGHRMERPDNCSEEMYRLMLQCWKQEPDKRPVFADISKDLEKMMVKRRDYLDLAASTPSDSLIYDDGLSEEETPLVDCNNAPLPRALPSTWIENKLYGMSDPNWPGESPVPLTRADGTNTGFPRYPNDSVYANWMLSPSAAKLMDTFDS
Method: as §1, §2, §3, §4

[6] = target: RET^V804M (Homo sapiens, UniProt P07949, V804M); test: HTRF KinEASE-TK RET enzyme inhibition; format: biochemical; conditions: RET^V804M 0.6 nM, ATP 15 μM; read-out: Inhibitory IC50 on RET enzyme
RET^V804M, sequence (P07949 29-1114 V804M): as the sequence (P07949 29-1114 V804L) above, with L776M counted along it
Method: as §1, §2, §3, §4

[7] = target: RET^M918T (Homo sapiens, UniProt P07949, M918T); test: HTRF KinEASE-TK RET enzyme inhibition; format: biochemical; conditions: RET^M918T 0.3 nM, ATP 15 μM; read-out: Inhibitory IC50 on RET enzyme
RET^M918T, sequence (P07949 29-1114 M918T): as the sequence (P07949 29-1114 V804L) above, with L776V, M890T counted along it
Method: as §1, §2, §3, §4

[8] = target: wild-type RET (Homo sapiens, UniProt P07949); test: HTRF KinEASE-TK RET enzyme inhibition; format: biochemical; conditions: RET 0.2 nM, ATP 30 μM; read-out: Inhibitory IC50 on RET enzyme
wild-type RET, sequence (P07949 29-1114): as the sequence (P07949 29-1114 V804L) above, with L776V counted along it
Method: as §1, §2, §3, §4

[9] = Solubility determination at different pH; format: physicochemical; conditions: aqueous buffer
[10] = High humidity 25° C. ± 2° C./92.5% RH ± 5% RH, Day 30
[11] = High temperature 60° C. ± 2° C., Day 30

Cc1cc(Nc2cc(C)[nH]n2)nc(-c2ccc(N3CC4CC(C3)N4Cc3ccc(-n4cc(F)cn4)nc3)nc2)n1
crystal form before and after the DVS test ([1]; RH range 0%-90%-0%): remained changed
desorption of adsorbed water (DVS) ([1]; humidity decreased from 90% to 0%): fully desorbed
water absorbed (DVS) ([1]; humidity increased to 90%): about 0.7%
Cl [2]: 1.47 mL/min/kg
Vd [2]: 0.356 L/kg
AUC(0-inf) ([2]; mouse): 11400 ng·h/mL
AUC(0-t) ([2]; mouse): 11400 ng·h/mL
Cmax ([2]; mouse): 2060 ng/mL
Tmax ([2]; mouse): 1 h
half-life ([2]; mouse): 2.81 h
Appearance ([3]; Day 0): White solid
HPLC purity ([3]; Day 0): 99.6%
Appearance [3, 10]: White solid
Crystal form [3, 10]: form A
HPLC purity [3, 10]: 99.5%
Appearance [3, 11]: White solid
Crystal form [3, 11]: form A
HPLC purity [3, 11]: 99.3%
IC50 [4]: 1.59 ± 0.51 nM
IC50 [5]: 2.48 ± 1 nM
IC50 [6]: 0.6 ± 0.2 nM
IC50 [7]: 2.23 ± 0.64 nM
IC50 [8]: 0.56 ± 0.09 nM
solubility ([9]; Buffer pH 1.0): ≥ 12200 µg/mL
solubility ([9]; Buffer pH 2.0): 3500 µg/mL (≈ 6.51 mM)
solubility ([9]; Buffer pH 3.0): 2500 µg/mL (≈ 4.65 mM)
